According to patent US20100286145A1, “ISOPHTHALAMIDE DERIVATIVES INHIBITING BETA-SECRETASE ACTIVITY” (CoMentis, Inc., priority 2007, published 2010):

Columns and labels:
memapsin 2 = memapsin 2 (Homo sapiens, UniProt P56817); assay: Inhibition of memapsin 2 beta-secretase activity (fluorogenic substrate FS-2); format: biochemical; conditions: memapsin 2, pH 4, 37° C., 20 minutes pre-incubation; read-out: M2Ki
How it was run: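 Memapsin 2 pre-incubated 20 min with compound at pH 4, 37° C, then FS-2 substrate (MCA-SEVNLDAEFK-DNP, APP Swedish cleavage site) added. Rate of fluorescence increase compared with uninhibited controls, fitted to a tight-binding inhibition model.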

[1] = tested on: Aβ production in Chinese hamster ovary cells that over-express human APP695 with the London and Swedish mutations; assay: Cellular Aβ IC50 determination (Aβ40 sandwich ELISA); format: cell-based; conditions: Cricetulus griseus; cellular Aβ production; read-out: IC50
How it was run: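 CHO cells overexpressing human APP695 with London and Swedish mutations, seeded at 10% confluency, treated with compounds up to about 4 μM final (0.4% DMSO). Secreted Aβ40 measured by sandwich ELISA relative to control and fitted to a 4-parameter IC50 model.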

Chain of memapsin 2 (P56817 46-501): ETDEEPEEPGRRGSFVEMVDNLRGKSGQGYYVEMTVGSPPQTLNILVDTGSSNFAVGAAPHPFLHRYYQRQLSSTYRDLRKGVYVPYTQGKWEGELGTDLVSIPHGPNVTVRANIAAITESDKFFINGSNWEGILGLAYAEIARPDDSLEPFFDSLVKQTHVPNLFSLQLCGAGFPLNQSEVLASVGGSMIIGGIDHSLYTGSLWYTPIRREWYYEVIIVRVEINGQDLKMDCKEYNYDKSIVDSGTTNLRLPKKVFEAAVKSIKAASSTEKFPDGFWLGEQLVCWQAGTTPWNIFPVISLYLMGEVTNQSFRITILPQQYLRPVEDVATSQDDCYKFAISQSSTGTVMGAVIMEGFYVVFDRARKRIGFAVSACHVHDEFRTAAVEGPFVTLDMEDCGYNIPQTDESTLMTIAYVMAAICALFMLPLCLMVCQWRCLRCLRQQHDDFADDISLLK

Row | Ki (memapsin 2) [µM] | IC50 [1] [µM] | SMILES
1 | < 0.3 | < 1 | CNC(=O)c1cc(CNC[C@@H](O)[C@H](Cc2ccccc2)NC(=O)c2cccc(C(=O)N(C)Cc3nc(C)cs3)c2)cc(OC)c1 [Compound 112, N1-((2S,3R)-3-hydroxy-4-(3-methoxy-5-(methylcarbamoyl)benzylamino)-1-phenylbutan-2-yl)-N3-methyl-N3-((4-methylthiazol-2-yl)methyl)isophthalamide]
2 | < 0.3 | < 1 | C[C@@H](NC(=O)c1cc(C(=O)N[C@@H](Cc2ccccc2)[C@H](O)CNCc2cccc(C(=O)O)c2)cc(N(C)S(C)(=O)=O)c1)c1ccccc1 [Compound 113, 3-(((2R,3S)-2-hydroxy-3-(3-(N-methylmethylsulfonamido)-5-((R)-1-phenylethylcarbamoyl)benzamido)-4-phenylbutylamino)methyl)benzoic acid]
3 | < 0.3 | < 1 | COC(=O)c1cc(CNC[C@@H](O)[C@H](Cc2ccccc2)NC(=O)c2cc(C(=O)N[C@H](C)c3ccccc3)cc(N(C)S(C)(=O)=O)c2)cc(OC)c1 [Compound 114, methyl 3-(((2R,3S)-2-hydroxy-3-(3-(N-methylmethylsulfonamido)-5-((R)-1-phenylethylcarbamoyl)benzamido)-4-phenylbutylamino)methyl)-5-methoxybenzoate]
4 | > 0.501 | < 1 | Cc1cccc(CNC[C@@H](O)[C@H](Cc2ccccc2)NC(=O)c2cccc(C(=O)N(C)Cc3nc(C)cs3)c2)n1 [Compound 115, N1-((2S,3R)-3-hydroxy-4-((6-methylpyridin-2-yl)methylamino)-1-phenylbutan-2-yl)-N3-methyl-N3-((4-methylthiazol-2-yl)methyl)isophthalamide]
5 | < 0.3 | < 1 | Cc1csc(CN(C)C(=O)c2cccc(C(=O)N[C@@H](Cc3ccccc3)[C@H](O)CNCc3cc(OCc4ccccc4)cc(C(C)C)c3)c2)n1 [Compound 116, N1-((2S,3R)-4-(3-(benzyloxy)-5-isopropylbenzylamino)-3-hydroxy-1-phenylbutan-2-yl)-N3-methyl-N3-((4-methylthiazol-2-yl)methyl)isophthalamide]
6 | < 0.3 | < 1 | COc1cccc(CNC[C@@H](O)[C@H](Cc2ccccc2)NC(=O)c2cc(NO)cc(C(=O)N(C)Cc3nc(C)cs3)c2)c1 [Compound 117, N1-((2S,3R)-3-hydroxy-4-(3-methoxybenzylamino)-1-phenylbutan-2-yl)-5-(hydroxyamino)-N3-methyl-N3-((4-methylthiazol-2-yl)methyl)isophthalamide]
7 | > 0.501 | 1 to 5 | Cc1csc(CN(C)C(=O)c2cccc(C(=O)N[C@@H](Cc3ccccc3)[C@H](O)CNCc3cnn(C(C)(C)C)c3C)c2)n1 [Compound 118, N1-((2S,3R)-4-((1-tert-butyl-5-methyl-1H-pyrazol-4-yl)methylamino)-3-hydroxy-1-phenylbutan-2-yl)-N3-methyl-N3-((4-methylthiazol-2-yl)methyl)isophthalamide]
8 | < 0.3 | < 1 | Cc1csc(CN(C)C(=O)c2cccc(C(=O)N[C@@H](Cc3ccccc3)[C@H](O)CNCc3cc(NS(C)(=O)=O)cc(C(C)C)c3)c2)n1 [Compound 119, N1-((2S,3R)-3-hydroxy-4-(3-isopropyl-5-(methylsulfonamido)benzylamino)-1-phenylbutan-2-yl)-N3-methyl-N3-((4-methylthiazol-2-yl)methyl)isophthalamide]
9 | < 0.3 | < 1 | COc1cccc(CNC[C@@H](O)[C@H](Cc2ccccc2)NC(=O)c2cc(CN=[N+]=[N-])cc(C(=O)N(C)Cc3nc(C)cs3)c2)c1 [Compound 121, 5-(azidomethyl)-N1-((2S,3R)-3-hydroxy-4-(3-methoxybenzylamino)-1-phenylbutan-2-yl)-N3-methyl-N3-((4-methylthiazol-2-yl)methyl)isophthalamide]
10 | < 0.3 | < 1 | COCc1cc(C(=O)N[C@@H](Cc2ccccc2)[C@H](O)CNCc2cccc(OC)c2)cc(C(=O)N(C)Cc2nc(C)cs2)c1 [Compound 122, N1-((2S,3R)-3-hydroxy-4-(3-methoxybenzylamino)-1-phenylbutan-2-yl)-5-(methoxymethyl)-N3-methyl-N3-((4-methylthiazol-2-yl)methyl)isophthalamide]
11 | < 0.3 | < 1 | CC(=O)c1cccc(CNC[C@@H](O)[C@H](Cc2ccccc2)NC(=O)c2cccc(C(=O)N(C)Cc3nc(C)cs3)c2)c1 [Compound 124, N1-((2S,3R)-4-(3-acetylbenzylamino)-3-hydroxy-1-phenylbutan-2-yl)-N3-methyl-N3-((4-methylthiazol-2-yl)methyl)isophthalamide]
12 | < 0.3 | < 1 | Cc1csc(CN(C)C(=O)c2cccc(C(=O)N[C@@H](Cc3ccccc3)[C@H](O)CNCc3cc(O)cc(C(C)C)c3)c2)n1 [Compound 125, N1-((2S,3R)-3-hydroxy-4-(3-hydroxy-5-isopropylbenzylamino)-1-phenylbutan-2-yl)-N3-methyl-N3-((4-methylthiazol-2-yl)methyl)isophthalamide]
13 | < 0.3 | < 1 | CC(=O)c1cccc(CNC[C@@H](O)[C@H](Cc2ccccc2)NC(=O)c2cc(C(=O)N[C@H](C)c3ccccc3)cc(N(C)S(C)(=O)=O)c2)c1 [Compound 126, N1-((2S,3R)-4-(3-acetylbenzylamino)-3-hydroxy-1-phenylbutan-2-yl)-5-(N-methylmethylsulfonamido)-N3-((R)-1-phenylethyl)isophthalamide]
14 | < 0.3 | < 1 | Cc1csc(CN(C)C(=O)c2cccc(C(=O)N[C@@H](Cc3ccccc3)[C@H](O)CNCc3cccc(N(C)C)c3)c2)n1 [Compound 129, N1-((2S,3R)-4-(3-(dimethylamino)benzylamino)-3-hydroxy-1-phenylbutan-2-yl)-N3-methyl-N3-((4-methylthiazol-2-yl)methyl)isophthalamide]
15 | 0.301 to 0.5 | > 5 | Cc1csc(CN(C)C(=O)c2cccc(C(=O)N[C@@H](Cc3ccccc3)[C@H](O)CNCc3cc(C(C)C)cc(N(C)C(=O)OCc4ccccc4)c3)c2)n1 [Compound 130, benzyl 3-(((2R,3S)-2-hydroxy-3-(3-(methyl((4-methylthiazol-2-yl)methyl)carbamoyl)benzamido)-4-phenylbutylamino)methyl)-5-isopropylphenyl(methyl)carbamate]
16 | < 0.3 | < 1 | CNc1cc(CNC[C@@H](O)[C@H](Cc2ccccc2)NC(=O)c2cccc(C(=O)N(C)Cc3nc(C)cs3)c2)cc(C(C)C)c1 [Compound 133, N1-((2S,3R)-3-hydroxy-4-(3-isopropyl-5-(methylamino)benzylamino)-1-phenylbutan-2-yl)-N3-methyl-N3-((4-methylthiazol-2-yl)methyl)isophthalamide]
17 | < 0.3 | 1 to 5 | COC(=O)c1cc(CNC[C@@H](O)[C@H](Cc2ccccc2)NC(=O)c2cccc(C(=O)N(C)Cc3nc(C)cs3)c2)cc(N(C)S(C)(=O)=O)c1 [Compound 134, methyl 3-(((2R,3S)-2-hydroxy-3-(3-(methyl((4-methylthiazol-2-yl)methyl)carbamoyl)benzamido)-4-phenylbutylamino)methyl)-5-(N-methylmethylsulfonamido)benzoate]
18 | < 0.3 | < 1 | Cc1csc(CN(C)C(=O)c2cccc(C(=O)N[C@@H](Cc3ccccc3)[C@H](O)CNCc3cccc(C#N)c3)c2)n1 [Compound 137, N1-((2S,3R)-4-(3-cyanobenzylamino)-3-hydroxy-1-phenylbutan-2-yl)-N3-methyl-N3-((4-methylthiazol-2-yl)methyl)isophthalamide]
19 | < 0.3 | < 1 | Cc1csc(CN(C)C(=O)c2cccc(C(=O)N[C@@H](Cc3ccccc3)[C@H](O)CNCc3cc(C(=O)O)cc(N(C)S(C)(=O)=O)c3)c2)n1 [Compound 139, 3-(((2R,3S)-2-hydroxy-3-(3-(methyl((4-methylthiazol-2-yl)methyl)carbamoyl)benzamido)-4-phenylbutylamino)methyl)-5-(N-methylmethylsulfonamido)benzoic acid]
20 | < 0.3 | < 1 | COc1cccc(CNC[C@@H](O)[C@H](Cc2ccccc2)NC(=O)c2cc(C(=O)N(C)Cc3nc(C)cs3)cc(-c3ccccc3C#N)c2)c1 [Compound 140, 2′-cyano-N3-((2S,3R)-3-hydroxy-4-(3-methoxybenzylamino)-1-phenylbutan-2-yl)-N5-methyl-N5-((4-methylthiazol-2-yl)methyl)biphenyl-3,5-dicarboxamide]
21 | 0.301 to 0.5 | < 1 | COC(=O)c1cccc(CNC[C@@H](O)[C@H](Cc2ccccc2)NC(=O)c2cccc(C(=O)N(C)Cc3nc(C)cs3)c2)c1 [Compound 141, methyl 3-(((2R,3S)-2-hydroxy-3-(3-(methyl((4-methylthiazol-2-yl)methyl)carbamoyl)benzamido)-4-phenylbutylamino)methyl)benzoate]
22 | < 0.3 | < 1 | C[C@@H](NC(=O)c1cc(C(=O)N[C@@H](Cc2ccccc2)[C@H](O)CNCc2cccc(C(F)F)c2)cc(N(C)S(C)(=O)=O)c1)c1ccccc1 [Compound 142, N1-((2S,3R)-4-(3-(difluoromethyl)benzylamino)-3-hydroxy-1-phenylbutan-2-yl)-5-(N-methylmethylsulfonamido)-N3-((R)-1-phenylethyl)isophthalamide]
23 | < 0.3 | < 1 | Cc1csc(CN(C)C(=O)c2cccc(C(=O)N[C@@H](Cc3ccccc3)[C@H](O)CNCc3cccc(C(F)F)c3)c2)n1 [Compound 143, N1-((2S,3R)-4-(3-(difluoromethyl)benzylamino)-3-hydroxy-1-phenylbutan-2-yl)-N3-methyl-N3-((4-methylthiazol-2-yl)methyl)isophthalamide]
